The NIST ThermoML archive (doi:10.1021/je060271a)

Conditions: 283.14 K, Liquid, Vibrating tube method

CCCCCCC(=O)OCC(COC(=O)CCCCCC)(COC(=O)CCCCCC)COC(=O)CCCCCC [pentaerythritol tetraheptanoate]
Conditions	mass density [kg/m3]
8943.7 kPa	991
8967.5 kPa	991
8987.8 kPa	991
9012.5 kPa	991
9033.2 kPa	991
9051.6 kPa	991
9069.4 kPa	991.1
9088.3 kPa	991.2
9103.3 kPa	991.1
9118.5 kPa	991
9136.4 kPa	991.1
9152.5 kPa	991.2
9168 kPa	991
9183.2 kPa	991.1
9198.7 kPa	991.1
9217 kPa	991.1
9232.5 kPa	991.1
9248.5 kPa	991.2
9267.1 kPa	991.1
9282.6 kPa	991.2
9298.5 kPa	991.2
9317.3 kPa	991.3
9333.1 kPa	991.2
9348.8 kPa	991.2
9368.1 kPa	991.1
9382 kPa	991.2
9401.3 kPa	991.2
9417.4 kPa	991.2
9436.7 kPa	991.3
9452.9 kPa	991.4
9468.9 kPa	991.2
9485.1 kPa	991.2
9504.9 kPa	991.3
9521.4 kPa	991.3
9538.2 kPa	991.1
9557.6 kPa	991.3
9574.2 kPa	991.5
9594.2 kPa	991.3
9610.7 kPa	991.3
9644.3 kPa	991.4
9664.8 kPa	991.3
9681.7 kPa	991.4
9698.7 kPa	991.4
9719.2 kPa	991.4
9736.6 kPa	991.4
9771.3 kPa	991.5
9792.1 kPa	991.4
9809.7 kPa	991.5
9845.5 kPa	991.4
9866.9 kPa	991.4
9884.8 kPa	991.4
9902.5 kPa	991.6
9923.9 kPa	991.5
9942.1 kPa	991.6
9960.2 kPa	991.5
9978.3 kPa	991.6
9999.8 kPa	991.7
10018 kPa	991.6
10037 kPa	991.5
10059 kPa	991.6
10078 kPa	991.6
10096 kPa	991.5
10114 kPa	991.8
10137 kPa	991.6
10156 kPa	991.6
10174 kPa	991.6
10197 kPa	991.7
10216 kPa	991.6
10239 kPa	991.8
10258 kPa	991.7
10277 kPa	991.6
10296 kPa	991.7
10319 kPa	991.7
10339 kPa	991.8
10359 kPa	991.8
10382 kPa	991.8
10401 kPa	991.8
10425 kPa	991.8
10445 kPa	991.9
10465 kPa	991.8
10485 kPa	991.9
10509 kPa	991.7
10529 kPa	991.9
10549 kPa	991.9
10574 kPa	991.8
10595 kPa	992
10615 kPa	991.9
10640 kPa	991.9
10661 kPa	991.9
10682 kPa	991.9
10706 kPa	991.9
10727 kPa	992
10748 kPa	991.9
10770 kPa	992
10795 kPa	992
10816 kPa	991.9
10842 kPa	991.9
10863 kPa	992
10886 kPa	992.1
10909 kPa	992
10931 kPa	992
10957 kPa	992.1
10979 kPa	992
11005 kPa	992.2
11028 kPa	992.2
11050 kPa	992.2
11072 kPa	992
11100 kPa	992.1
11122 kPa	992.2
11145 kPa	992.2
11173 kPa	992.1
11197 kPa	992.2
